Laboratory results from ChEMBL document CHEMBL4402533 (Eur J Med Chem, 2019).
Blank lines part the entries; values can stand above or below the compound they belong to.

Columns and labels:
[1] = system: HeLa; assay: Antiproliferative activity against human HeLa cells; type: functional, cell-based
[2] = species on record: Homo sapiens; assay: Selectivity ratio of Ki for human carbonic anhydrase 9 to Ki for human carbonic anhydrase 2
[3] = species on record: Homo sapiens; assay: Selectivity ratio of Ki for human carbonic anhydrase 12 to Ki for human carbonic anhydrase 9
[4] = Partition coefficient, log P of the compound; type: physicochemical; conditions: octanol/water
[5] = Chemical stability of the compound in pH 7.4 phosphate buffer assessed as drug decomposition in serum-free medium measured within 30 mins; type: physicochemical
[6] = Chemical stability of the compound in presence of 10% FBS or human blood; type: physicochemical
[7] = Critical aggregation concentration of compound by dynamic light scattering; type: physicochemical
[8] = system: Mus musculus; assay: Antiinflammatory activity in C57BL/6 mouse assessed as reduction in LPS-induced inflammatory mortality by measuring mouse survival rate at 10 mg/kg, iv preincubated for 15 mins followed by LPS stimulation and measured at 24 hrs interval for 7 days relative to control; type: functional
[9] = biological target: T1, Tyrosinase (Agaricus bisporus, UniProt O42713); assay: Inhibition of mushroom tyrosinase preincubated for 10 mins followed by L-DOPA addition and measured for 1 mins by spectrophotometric assay
T1 sequence (O42713 whole entry): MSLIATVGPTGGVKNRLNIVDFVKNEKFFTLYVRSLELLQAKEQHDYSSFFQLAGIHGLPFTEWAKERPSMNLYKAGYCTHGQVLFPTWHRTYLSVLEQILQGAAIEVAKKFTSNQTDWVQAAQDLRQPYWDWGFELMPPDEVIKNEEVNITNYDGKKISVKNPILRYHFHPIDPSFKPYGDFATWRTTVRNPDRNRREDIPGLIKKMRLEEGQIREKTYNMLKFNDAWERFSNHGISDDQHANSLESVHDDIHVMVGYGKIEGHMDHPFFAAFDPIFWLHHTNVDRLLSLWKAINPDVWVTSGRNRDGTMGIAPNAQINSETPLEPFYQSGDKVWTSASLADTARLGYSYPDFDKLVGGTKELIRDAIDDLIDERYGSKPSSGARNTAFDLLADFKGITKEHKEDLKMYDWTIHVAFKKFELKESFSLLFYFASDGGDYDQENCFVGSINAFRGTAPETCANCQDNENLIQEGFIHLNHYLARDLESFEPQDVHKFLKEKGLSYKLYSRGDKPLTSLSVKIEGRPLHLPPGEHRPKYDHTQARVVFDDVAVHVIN

Compound: COc1ccc(OC)c(/C=C/C(=O)/C=C/c2ccc(S(N)(=O)=O)cc2)c1
Ratio Ki [2]: 9 | Ratio Ki [3]: 9

Compound: O=C(/C=C/c1ccccc1O)/C=C/c1ccccc1Br
Activity [8]: 60%

Compound: O=C1/C(=C/c2ccc(O)cc2)CC/C1=C\c1ccc(O)cc1O
IC50 [9]: 1740 nM

The next lines start with results.

IC50 [1]: 700 nM
Compound: COc1ccc(/C=C/C(=O)/C=C/c2ccc(OCCN3CCCCC3)c(OC)c2)cc1OC

Ratio Ki [2]: 3 | Ratio Ki [3]: 70
Compound: COc1ccc(/C=C/C(=O)/C=C/c2ccc(S(N)(=O)=O)cc2)cc1OC

logP [4]: 2.3 to 2.6 | CAC [7]: 17 µM
Compound: COc1cc(/C=C/C(=O)CC(=O)/C=C/c2ccc(O)c(OC)c2)ccc1O [CURCUMIN]
Drug degradation [5]: < 90% | Stability [6]: < 50%
